This assay concerns metastin receptors. The assay can be described thus: Measurement of agonist activity by assaying changes in intracellular calcium ion level (FLIPR, Fluo-4 NW). To be noted: specific activity of the EC50 of a test compound based on the EC50 of Metastin (45-54), metastin receptor expression CHO cells. Format: cell-based, human. The method, boiled down:
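CHO/dhfr⁻ cells stably expressing human or rat metastin receptor, seeded 3×10^4/well for 24 h, loaded with Fluo-4 NW 30 min at 37 °C in HBSS with 0.1% BSA, 20 mM HEPES pH 7.4 and 1 mM probenecid. Compound-stimulated intracellular calcium change read on FLIPR.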

*1 amine or outer side, *2 acyl side, *3 side chain or, on linkers, in order; H or OH if unused. Where a SMILES comes first, the peptide text is derived from it. [ ]: non-standard residue; d: D form. X8 = O=C(CSC[C@H](Cc1ccccc1)N[*:1])[*:2]; X1 = CC(C)C[C@H](CCCN[*:1])C(=O)[*:2]; Arg(Me) = CNC(=N)NCCC[C@H](N)C(=O)O; Dap(CONH2) = NC(=O)NC[C@H](N)C(=O)O; Ala(cPr) = N[C@@H](CC1CC1)C(=O)O; Hyp = O=C(O)[C@@H]1C[C@@H](O)CN1; Cha = N[C@@H](CC1CCCCC1)C(=O)O; Cba = N[C@@H](CC1CCC1)C(=O)O; Dap = NC[C@H](N)C(=O)O

The values below come from patent US7786083B2, “Metastin derivatives and use thereof” (Takeda Pharmaceutical Company Limited, priority 2006, dated 2010).

Take `CNC(=N)NCCC[C@H](NC(=O)[C@H](CC(C)C)NC(=O)CSC[C@H](Cc1ccccc1)NC(=O)[C@@H](NC(=O)[C@H](CC(N)=O)NC(=O)[C@@H]1C[C@@H](O)CN1C(=O)[C@@H](Cc1ccc(O)cc1)NC(C)=O)[C@@H](C)O)C(=O)N[C@@H](Cc1c[nH]c2ccccc12)C(N)=O` [Compound No. 944, des(1)-Ac-[D-Tyr2,Hyp3,Thr5,Phe6Ψ(CH2S)Gly7,Arg(Me)9,Trp10]MS10] (Ac-[dY][Hyp]NT[X8]L[Arg(Me)]W-NH2): the “Specific Activity” value was found to be 0.7.

In the case of `CNC(=N)NCCC[C@H](NC(=O)[C@H](CC1CC1)NC(=O)CNC(=O)[C@H](CC1CCC1)NC(=O)[C@@H](NC(=O)[C@H](CC(N)=O)NC(=O)[C@@H]1C[C@@H](O)CN1C(=O)[C@@H](Cc1ccc(O)cc1)NC(C)=O)[C@@H](C)O)C(=O)N[C@@H](Cc1c[nH]c2ccccc12)C(N)=O` [Compound No. 945, des(1)-Ac-[D-Tyr2,Hyp3,Thr5,Ala(cBu)6,Ala(cPr)8,Arg(Me)9,Trp10]MS10] (Ac-[dY][Hyp]NT[Cba]G[Ala(cPr)][Arg(Me)]W-NH2), the “Specific Activity” value is recorded as 0.7.

In the case of `CNC(=N)NCCC[C@H](NC(=O)[C@H](CC1CCC1)NC(=O)CNC(=O)[C@H](CC1CCCCC1)NC(=O)[C@@H](NC(=O)[C@H](CC(N)=O)NC(=O)[C@@H]1C[C@@H](O)CN1C(=O)[C@@H](Cc1ccc(O)cc1)NC(C)=O)[C@@H](C)O)C(=O)N[C@@H](Cc1c[nH]c2ccccc12)C(N)=O` [Compound No. 946, des(1)-Ac-[D-Tyr2,Hyp3,Thr5,Cha6,Ala(cBu)8,Arg(Me)9,Trp10]MS10] (Ac-[dY][Hyp]NT[Cha]G[Cba][Arg(Me)]W-NH2), the “Specific Activity” value is 0.5.

Consider `CNC(=N)NCCC[C@H](NC(=O)[C@H](CC1CC1)NC(=O)CNC(=O)[C@H](CC1CCCCC1)NC(=O)[C@H](CO)NC(=O)[C@H](CNC(N)=O)NC(=O)[C@@H]1C[C@@H](O)CN1C(=O)[C@@H](Cc1ccc(O)cc1)NC(C)=O)C(=O)N[C@@H](Cc1c[nH]c2ccccc12)C(N)=O` [Compound No. 948, des(1)-Ac-[D-Tyr2,Hyp3,Alb4,Ser5,Cha6,Ala(cPr)8,Arg(Me)9,Trp10]MS10] (Ac-[dY][Hyp][Dap(CONH2)]S[Cha]G[Ala(cPr)][Arg(Me)]W-NH2), for which the “Specific Activity” value worked out at 0.5.

In the case of `CNC(=N)NCCC[C@H](NC(=O)[C@H](CC1CC1)NC(=O)CNC(=O)[C@H](CC1CCCCC1)NC(=O)CNC(=O)[C@H](CNC(N)=O)NC(=O)[C@@H]1C[C@@H](O)CN1C(=O)[C@@H](Cc1ccc(O)cc1)NC(C)=O)C(=O)N[C@@H](Cc1c[nH]c2ccccc12)C(N)=O` [Compound No. 949, des(1)-Ac-[D-Tyr2,Hyp3,Alb4,Gly5,Cha6,Ala(cPr)8,Arg(Me)9,Trp10]MS10] (Ac-[dY][Hyp][Dap(CONH2)]G[Cha]G[Ala(cPr)][Arg(Me)]W-NH2), the “Specific Activity” value is given as 0.7.

Turning to `CNC(=N)NCCC[C@H](NC(=O)[C@H](CC1CC1)NC(=O)CNC(=O)[C@H](CC1CCCCC1)NC(=O)[C@H](CN)NC(=O)[C@H](CNC(N)=O)NC(=O)[C@@H]1C[C@@H](O)CN1C(=O)[C@@H](Cc1ccc(O)cc1)NC(C)=O)C(=O)N[C@@H](Cc1c[nH]c2ccccc12)C(N)=O` [Compound No. 951, des(1)-Ac-[D-Tyr2,Hyp3,Alb4,Dap5,Cha6,Ala(cPr)8,Arg(Me)9,Trp10]MS10] (Ac-[dY][Hyp][Dap(CONH2)][Dap][Cha]G[Ala(cPr)][Arg(Me)]W-NH2), the “Specific Activity” value was determined as 0.7.

With `CC(=O)N[C@H](Cc1ccc(O)cc1)C(=O)N1C[C@H](O)C[C@H]1C(=O)N[C@@H](CNC(N)=O)C(=O)N[C@H](C(=O)N[C@@H](CC1CCCCC1)C(=O)NCCC[C@@H](CC(C)C)C(=O)N[C@@H](CCCNC(=N)N)C(=O)N[C@@H](Cc1c[nH]c2ccccc12)C(N)=O)[C@@H](C)O` [Compound No. 952, des(1)-Ac-[D-Tyr2,Hyp3,Alb4,Thr5,Cha6,Gly7Ψ(CH2CH2)Leu8,Trp10]MS10] (Ac-[dY][Hyp][Dap(CONH2)]T[Cha][X1]RW-NH2), the “Specific Activity” value turned out to be 1.3.
